Literature values as cited in patent publication US7863277B1, “Topical antipsychotic composition” (Medcara, L.L.C., priority 2005, dated 2011).

Details: decreasing absorption when not taken concurrently with food

**Q.** Which Oral bioavailability does the source give for `O=C1Cc2cc(CCN3CCN(c4nsc5ccccc45)CC3)c(Cl)cc2N1` [ziprasidone, 5-(2-(4-(1,2-benzisothiazol-3-yl)piperazinyl)ethyl)-6-chloro-1,3-dihydro-2(1H)-indole-2-one] here?
**A.** Its Oral bioavailability is “about 60%”.
